Assay results published in patent EP4003298B1 (Offhealth S.p.A., priority 2019, dated 2021).

What was measured:
[1] = system: IL-1α; assay: IL-1α release ELISA on SLS-irritated reconstructed human epidermis; type: cell-based; details: positive control SLS 0.25% only
Procedure: The assay was performed in two replicates.
In this study IL-1α was determined in the culture medium of treated and untreated epidermis, using a direct ELIS assay (enzyme-linked immuno-absorbent assay). The colorimetric signal is directly proportional to the amount of cytokine in the culture medium. The samples are read at 450 nm. The detection limit is less than 10 pg/ml.
Cytokine concentration is determined using a standard curve. The inhibition of IL-1α release was determined as: % of IL-1α inhibition: 100−(pg/ml IL−1α released from irritated; samples/pg/ml IL−1α positive control)*100 [formula]

[2] = system: reconstructed human epidermis; details: 24 h
Procedure: The assay included a prime MTT assay at the end of the incubation: cell survival assay using the reconstructed in vitro 3D artificial human epidermis to assess the cytotoxic potential of the sample.
The in vitro test systems used consist of an artificial three-dimensional system of the human epidermis. A reconstructed model of artificial human skin was prepared comprising normal human epidermal keratinocytes, which was grown as an integrated three-dimensional cell culture model, perfectly mimicking human skin in vitro.
The epidermis was pre-treated for 60 minutes with 0.25% SLS and was obtained in order to induce the synthesis and release of IL-1α. Later 30 µl of the formulation object of the invention was applied on two portions of the epidermis in two replicates, and the exposure was carried out for 24 hours at 37°C, 5% C02. […]
The epidermal units are treated with 1 mg of MD (3-4,5-dimethyl-thiazol-2-yl)-2,5-diphenyl-tetrazolium bromide) solution for 3 hours at 37°C. The solution is then removed and replaced with isopropanol, with a further 2 hours of incubation at room temperature; 2 aliquots of each sample are transferred to a 96-well plate for reading. The absorbance is read at the 570 nm wavelength with a colorimeter (Tecan Sunrise remote model) provided with a microplate reader. […]

CCCCCCCCCCCCOS(=O)(=O)[O-].[Na+] [SLS, sodium lauryl sulfate]
IL-1α pg/ml average ([1]; 6h): 79.17 pg/mL
IL-1α pg/ml average ([1]; 24h): 233.86 pg/mL
% Average cell viability (ds) [2]: 65.79 (0.45) %
